{"source": "patent US11071735B2", "about": "“Treatment of inflammatory conditions and autoimmune diseases with glucose uptake inhibitors” (Kadmon Corporation, LLC, priority 2017, dated 2021)", "key": {"GLUT": {"system": "GLUT", "assay": "glycolysis assay (oligomycin + Cell Titer-Glo ATP readout) in HT1080 cells", "type": "cell-based", "conditions": "10 μM oligomycin, one hour, glycolytically-derived ATP", "procedure,_shortened": "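HT1080 cells exposed for one hour to compound plus 10 μM oligomycin to block mitochondrial ATP, so remaining ATP reflects glycolysis. Glycolytic ATP read by CellTiter-Glo luminescence; IC50 derived from dose-response curves.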"}, "MCP-1 secretion": {"system": "MCP-1 secretion", "assay": "MCP-1 secretion of LPS-treated THP1 monocytes (ELISA)", "type": "cell-based", "conditions": "THP1 cells, compound one hour prior to 16 hour 1 μg/ml LPS", "method": "In FIG. 5A, THP1 cells were activated with 1 μg/ml LPS for 16 hrs prior to a one-hour glycolysis assay (Example 2+Oligomycin). In FIG. 5B, THP1 cells were treated with Example 2 one hour prior to a 16 hour treatment with 1 μg/ml LPS, after which MCP-1 secretion into the media was measured by ELISA (R&D systems) and cell number measured by Cell Titer Glo (Promega).\nTHP1 Monocyte assay: THP1 monocytic cancer cells were activated with 1 ug/ml LPS (Sigma-Aldrich). The previously described glycolysis assay was performed 16 hrs post-activation. For cytokine secretion, cells were pre-treated for one hour with GLUT inhibitors prior to 16 hours of 1 μg/ml LPS treatment."}, "GLUT3": {"molecular_target": "T1, GLUT3 (Homo sapiens, UniProt P11169)", "T1 construct": "endogenous in cells; host or cells: DLD1 GLUT1−/− (knock-out) cancer cells", "T1 sequence (P11169 1-496)": "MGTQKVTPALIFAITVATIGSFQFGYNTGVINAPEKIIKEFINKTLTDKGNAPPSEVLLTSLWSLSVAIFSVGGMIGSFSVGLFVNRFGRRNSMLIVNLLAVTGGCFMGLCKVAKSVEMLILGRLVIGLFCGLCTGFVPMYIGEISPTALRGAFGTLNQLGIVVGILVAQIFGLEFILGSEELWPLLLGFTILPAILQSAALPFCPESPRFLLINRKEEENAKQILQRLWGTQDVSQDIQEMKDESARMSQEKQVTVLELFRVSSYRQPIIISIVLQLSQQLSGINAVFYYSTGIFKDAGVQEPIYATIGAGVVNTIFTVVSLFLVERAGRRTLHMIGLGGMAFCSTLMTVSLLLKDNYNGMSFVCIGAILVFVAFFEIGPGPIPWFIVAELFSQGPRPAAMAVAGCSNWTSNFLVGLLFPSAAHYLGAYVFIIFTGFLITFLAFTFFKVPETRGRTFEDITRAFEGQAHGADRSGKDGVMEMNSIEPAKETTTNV", "assay": "glycolysis assay in DLD1 GLUT1−/− cells (rely on GLUT3)", "type": "cell-based", "conditions": "DLD1-KO (GLUT1−/−) cells; 10 μM oligomycin, one hour", "procedure,_shortened": "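Cells […] exposed for 1 h to inhibitor plus 10 μM oligomycin to block mitochondrial ATP; remaining glycolytic ATP read by CellTiter-Glo luminescence. IC50 derived from dose-response curves.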"}, "[1]": {"system": "TNFalpha and MCP-1 levels", "assay": "LPS/D-galactosamine mouse model, cytokine production", "type": "in vivo", "conditions": "100 mg/kg p.o.", "method": "100 μg LPS and 18 mg D-galactosamine were used to induce cytokine production. […] In FIG. 6, Example 2 is shown to modulate cytokine/chemokine production in response to LPS/D-galactosamine (mouse model of sepsis and liver damage). Example 2 prevents the dramatic increase of TNFalpha (FIG. 6A), a cytokine well-established as a major driver of inflammation. In line with in vitro results, Example 2 abrogates an initial increase in MCP-1 (FIG. 6B), but is unable to statistically suppress MCP1 induction at later time points (not shown). LPS Mouse Model: Performed at Pharmalegacy."}, "[2]": {"system": "markers of Teff and Treg cells", "assay": "flow cytometry of cytokines and lineage transcription factors in activated CD4 T cells", "type": "cell-based, human", "conditions": "1 μM; CD4 T cells activated 48 hrs with IL-1β, TGF-β", "method": "FIG. 7. […] FIG. 7A. CD4 T cells were activated for 48 hrs in the presence of IL-1β, TGF-β and 1 μM of the Example 2 compound. For the last 5 hrs, PMA/Ionomycin/Brefeldin A was added and intracellular staining for cytokines was performed. Flow cytometry was used to assess INFγ and IL-17A levels (gated on live cells). FIG. 7B. Cells were cultured and treated as in FIG. 7A, excluding PMA/Ionomycin/Brefeldin A treatment. Flow cytometry was used to assess levels of CD4 T cell lineage defining transcription factors.\nGLUT1 and GLUT3 inhibitors downregulate the markers of T effector cells but not T regulatory cells. In, CD4 T cells were activated for 48 hrs in the presence of […], TGF-β and 1 μM of compound Example 2. […] Flow cytometry was used to assess INFγ and IL-17A levels (gated on live cells) and quantification of percent positive cells positive is shown in FIG. 7A. […]\nT cell assays: Human CD4 T cells were purified using RossetteSep Human CD4 T cell Enrichment Cocktail. […] IL-17 levels were measured by ELISA (R&D systems, Human IL-17 Quantikine ELISA kit). Proliferation was measured by Cell Titer Glo (Promega). Intracellular staining was performed and analyzed using the Guava EasyCyte flow cytometer. […] Protein levels and phosphorylation status were assessed by western blot analysis using antibodies purchased from Cell Signaling."}}, "data": [{"smiles": "CCOc1ccc2nc(-c3cccc(OCC(=O)NC(C)C)c3)nc(Nc3ccc(-c4cn[nH]c4)cc3)c2c1", "note": "[Ex. 2, 2-(3-(4-((4-(1H-pyrazol-4-yl)phenyl)amino)-6-ethoxyquinazolin-2-yl)phenoxy)-N-isopropylacetamide]", "values": [{"measurement": "IC50", "setting": "GLUT", "result": 149, "unit": "nM"}, {"measurement": "MCP-1 secretion", "setting": "MCP-1 secretion", "result": "inhibits cytokine/chemokine secretion"}, {"measurement": "IC50", "setting": "GLUT3", "result": 60.9, "unit": "nM"}, {"measurement": "increase of MCP-1 levels", "setting": "[1]; 2 hours post LPS/Galn", "result": "unable to prevent a statistically significant increase"}, {"measurement": "increase of MCP-1", "setting": "[1]; one hour following LPS/Galn", "result": "inhibits the increase"}, {"measurement": "increase of TNFalpha", "setting": "[1]; one hour following LPS/Galn", "result": "inhibits the increase"}, {"measurement": "markers of Teff and Treg cells", "setting": "[2]", "result": "downregulate markers of Teff but not Treg cells"}]}]}
